Experimental data as given in ChEMBL document CHEMBL1141655, “Structure-activity relationships of Bak derived peptides: affinity and specificity modulations by amino acid replacement” (Eur J Med Chem, 2008).
Non-standard residues stand in square brackets, D forms with d. Residues, ends and D or L forms follow the SMILES beside them. Phe(4-Cl) = N[C@@H](Cc1ccc(Cl)cc1)C(=O)O; 2Nal = N[C@@H](Cc1ccc2ccccc2c1)C(=O)O

Target: Bcl-2-like protein 1 (Homo sapiens, UniProt Q07817)
Assay: Binding affinity to recombinant Bcl-XL expressed in Escherichia coli BL21 by fluorescence polarization assay

Bcl-2-like protein 1, sequence (Q07817 whole entry): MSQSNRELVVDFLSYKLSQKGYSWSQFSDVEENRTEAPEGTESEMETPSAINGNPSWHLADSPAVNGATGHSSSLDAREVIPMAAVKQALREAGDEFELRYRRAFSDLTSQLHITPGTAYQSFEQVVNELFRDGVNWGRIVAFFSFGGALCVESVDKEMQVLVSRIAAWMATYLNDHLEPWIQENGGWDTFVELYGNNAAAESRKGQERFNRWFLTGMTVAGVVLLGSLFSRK

Row | EC50 | SMILES
1 | 93000 nM | CC[C@H](C)[C@H](NC(=O)[C@H](C)NC(=O)[C@H](CC(C)C)NC(=O)[C@H](CCC(N)=O)NC(=O)[C@H](CCCN=C(N)N)NC(=O)CNC(=O)[C@@H](NC(=O)[C@H](CCC(N)=O)NC(=O)CN)C(C)C)C(=O)N[C@H](C(=O)NCC(=O)N[C@@H](CC(=O)O)C(=O)N[C@@H](CC(=O)O)C(=O)N[C@@H](C)C(=O)N[C@@H](CC(N)=O)C(=O)N[C@@H](CCCN=C(N)N)C(=O)O)[C@@H](C)CC
2 | 270000 nM | CC[C@H](C)[C@H](NC(=O)[C@H](C)NC(=O)[C@H](C)NC(=O)[C@H](CCC(N)=O)NC(=O)[C@H](CCCN=C(N)N)NC(=O)CNC(=O)[C@@H](NC(=O)[C@H](CCC(N)=O)NC(=O)CN)C(C)C)C(=O)N[C@H](C(=O)NCC(=O)N[C@@H](CC(=O)O)C(=O)N[C@@H](CC(=O)O)C(=O)N[C@H](C(=O)N[C@@H](CC(N)=O)C(=O)N[C@@H](CCCN=C(N)N)C(=O)O)[C@@H](C)CC)[C@@H](C)CC
3 | 15000 nM | CC[C@H](C)[C@H](NC(=O)[C@H](C)NC(=O)[C@H](CC(C)C)NC(=O)[C@H](CCC(N)=O)NC(=O)[C@H](CCCNC(=N)N)NC(=O)CNC(=O)[C@H](C)NC(=O)[C@H](CCC(N)=O)NC(=O)CN)C(=O)N[C@H](C(=O)NCC(=O)N[C@@H](CC(=O)O)C(=O)N[C@@H](CC(=O)O)C(=O)N[C@H](C(=O)N[C@@H](CC(N)=O)C(=O)N[C@@H](CCCNC(=N)N)C(=O)O)[C@@H](C)CC)[C@@H](C)CC
4 | 655 nM | CCCC[C@H](NC(=O)[C@@H](NC(=O)[C@H](C)NC(=O)[C@H](CC(C)C)NC(=O)[C@H](CCC(N)=O)NC(=O)[C@H](CCCN=C(N)N)NC(=O)CNC(=O)[C@@H](NC(=O)[C@H](CCC(N)=O)NC(=O)CN)C(C)C)[C@@H](C)CC)C(=O)NCC(=O)N[C@@H](CC(=O)O)C(=O)N[C@@H](CC(=O)O)C(=O)N[C@H](C(=O)N[C@@H](CC(N)=O)C(=O)N[C@@H](CCCN=C(N)N)C(=O)O)[C@@H](C)CC
5 | 56 nM | CC[C@H](C)[C@H](NC(=O)[C@H](C)NC(=O)[C@H](CC(C)C)NC(=O)[C@H](CCC(N)=O)NC(=O)[C@H](CCCNC(=N)N)NC(=O)CNC(=O)[C@@H](NC(=O)[C@H](CCC(N)=O)NC(=O)CN)C(C)C)C(=O)N[C@H](C(=O)NCC(=O)N[C@@H](CC(=O)O)C(=O)N[C@@H](CC(=O)O)C(=O)N[C@@H](Cc1cccc(Cl)c1)C(=O)N[C@@H](CC(N)=O)C(=O)N[C@@H](CCCNC(=N)N)C(=O)O)[C@@H](C)CC
6 | 200 nM | CC[C@H](C)[C@H](NC(=O)[C@H](C)NC(=O)[C@H](CC(C)C)NC(=O)[C@H](CCC(N)=O)NC(=O)[C@H](CCCN=C(N)N)NC(=O)CNC(=O)[C@@H](NC(=O)[C@H](CCC(N)=O)NC(=O)CN)C(C)C)C(=O)N[C@@H](Cc1cccc(Cl)c1)C(=O)NCC(=O)N[C@@H](CC(=O)O)C(=O)N[C@@H](CC(=O)O)C(=O)N[C@H](C(=O)N[C@@H](CC(N)=O)C(=O)N[C@@H](CCCN=C(N)N)C(=O)O)[C@@H](C)CC
7 | 2140 nM | CC[C@H](C)[C@H](NC(=O)[C@H](C)NC(=O)[C@H](CC(C)C)NC(=O)[C@H](CCC(N)=O)NC(=O)[C@H](CCCNC(=N)N)NC(=O)CNC(=O)[C@@H](NC(=O)[C@H](CCC(N)=O)NC(=O)CN)C(C)C)C(=O)N[C@@H](Cc1ccccc1)C(=O)NCC(=O)N[C@@H](CC(=O)O)C(=O)N[C@@H](CC(=O)O)C(=O)N[C@H](C(=O)N[C@@H](CC(N)=O)C(=O)N[C@@H](CCCNC(=N)N)C(=O)O)[C@@H](C)CC
8 | 118 nM | CCCC[C@H](NC(=O)[C@H](CC(=O)O)NC(=O)[C@H](CC(=O)O)NC(=O)CNC(=O)[C@@H](NC(=O)[C@@H](NC(=O)[C@H](C)NC(=O)[C@H](CC(C)C)NC(=O)[C@H](CCC(N)=O)NC(=O)[C@H](CCCN=C(N)N)NC(=O)CNC(=O)[C@@H](NC(=O)[C@H](CCC(N)=O)NC(=O)CN)C(C)C)[C@@H](C)CC)[C@@H](C)CC)C(=O)N[C@@H](CC(N)=O)C(=O)N[C@@H](CCCN=C(N)N)C(=O)O
9 | > 10000 nM | CC[C@H](C)[C@H](NC(=O)[C@H](C)NC(=O)[C@H](Cc1cccc2ccccc12)NC(=O)[C@H](CCC(N)=O)NC(=O)[C@H](CCCNC(=N)N)NC(=O)CNC(=O)[C@@H](NC(=O)[C@H](CCC(N)=O)NC(=O)CN)C(C)C)C(=O)N[C@H](C(=O)NCC(=O)N[C@@H](CC(=O)O)C(=O)N[C@@H](CC(=O)O)C(=O)N[C@H](C(=O)N[C@@H](CC(N)=O)C(=O)N[C@@H](CCCNC(=N)N)C(=O)O)[C@@H](C)CC)[C@@H](C)CC
10 | 58 nM | CC[C@H](C)[C@H](NC(=O)[C@H](C)NC(=O)[C@H](CC(C)C)NC(=O)[C@H](CCC(N)=O)NC(=O)[C@H](CCCNC(=N)N)NC(=O)CNC(=O)[C@@H](NC(=O)[C@H](CCC(N)=O)NC(=O)CN)C(C)C)C(=O)N[C@H](C(=O)NCC(=O)N[C@@H](CC(=O)O)C(=O)N[C@@H](CC(=O)O)C(=O)N[C@@H](CC1CCCCC1)C(=O)N[C@@H](CC(N)=O)C(=O)N[C@@H](CCCNC(=N)N)C(=O)O)[C@@H](C)CC
11 | 3620 nM | CC[C@H](C)[C@H](NC(=O)[C@H](CC(=O)O)NC(=O)[C@H](CC(=O)O)NC(=O)CNC(=O)[C@H](Cc1ccc(O)cc1)N(C)C(=O)[C@@H](NC(=O)[C@H](C)NC(=O)[C@H](CC(C)C)NC(=O)[C@H](CCC(N)=O)NC(=O)[C@H](CCCNC(=N)N)NC(=O)CNC(=O)[C@@H](NC(=O)[C@H](CCC(N)=O)NC(=O)CN)C(C)C)[C@@H](C)CC)C(=O)N[C@@H](CC(N)=O)C(=O)N[C@@H](CCCNC(=N)N)C(=O)O
12 | 53 nM | CC[C@H](C)[C@H](NC(=O)[C@H](C)NC(=O)[C@H](Cc1ccc2ccccc2c1)NC(=O)[C@H](CCC(N)=O)NC(=O)[C@H](CCCNC(=N)N)NC(=O)CNC(=O)[C@@H](NC(=O)[C@H](CCC(N)=O)NC(=O)CN)C(C)C)C(=O)N[C@H](C(=O)NCC(=O)N[C@@H](CC(=O)O)C(=O)N[C@@H](CC(=O)O)C(=O)N[C@@H](Cc1ccc(Cl)cc1)C(=O)N[C@@H](CC(N)=O)C(=O)N[C@@H](CCCNC(=N)N)C(=O)O)[C@@H](C)CC (H-GQVGRQ[2Nal]AIIGDD[Phe(4-Cl)]NR-OH)
13 | 54 nM | CC[C@H](C)[C@H](NC(=O)[C@H](C)NC(=O)[C@H](Cc1ccc2ccccc2c1)NC(=O)[C@H](CCC(N)=O)NC(=O)[C@H](CCCNC(=N)N)NC(=O)CNC(=O)[C@@H](NC(=O)[C@H](CCC(N)=O)NC(=O)CN)C(C)C)C(=O)N[C@H](C(=O)NCC(=O)N[C@@H](CC(=O)O)C(=O)N[C@@H](CC(=O)O)C(=O)N[C@@H](Cc1ccccc1)C(=O)N[C@@H](CC(N)=O)C(=O)N[C@@H](CCCNC(=N)N)C(=O)O)[C@@H](C)CC (H-GQVGRQ[2Nal]AIIGDDFNR-OH)
14 | 9740 nM | CC[C@H](C)[C@H](NC(=O)[C@H](C)NC(=O)[C@H](Cc1cccnc1)NC(=O)[C@H](CCC(N)=O)NC(=O)[C@H](CCCN=C(N)N)NC(=O)CNC(=O)[C@@H](NC(=O)[C@H](CCC(N)=O)NC(=O)CN)C(C)C)C(=O)N[C@H](C(=O)NCC(=O)N[C@@H](CC(=O)O)C(=O)N[C@@H](CC(=O)O)C(=O)N[C@H](C(=O)N[C@@H](CC(N)=O)C(=O)N[C@@H](CCCN=C(N)N)C(=O)O)[C@@H](C)CC)[C@@H](C)CC
15 | 299 nM | CC[C@H](C)[C@H](NC(=O)[C@H](C)NC(=O)[C@H](CC(C)C)NC(=O)[C@H](CCC(N)=O)NC(=O)[C@H](CCCN=C(N)N)NC(=O)CNC(=O)[C@@H](NC(=O)[C@H](CCC(N)=O)NC(=O)CN)C(C)C)C(=O)N[C@@H](Cc1cccc2ccccc12)C(=O)NCC(=O)N[C@@H](CC(=O)O)C(=O)N[C@@H](CC(=O)O)C(=O)N[C@H](C(=O)N[C@@H](CC(N)=O)C(=O)N[C@@H](CCCN=C(N)N)C(=O)O)[C@@H](C)CC
